In series [1] the test system is pseudotyped lentivirus particles bearing influenza virus HA (WSN). Format: cell-based.
The subject of series [2] is influenza A/WSN/33 virus. Briefly: Small molecule inhibition of virus growth in A549 cells, plaque assay. The class given is cell-based.
In a further series the test system is influenza virus. Format: cell-based.
For series [3], the system named is WSN-Ren virus. Format: cell-based, influenza A/WSN/33 virus.
Series [4] has as its system influenza A/WSN/33 virus. Format: cell-based.
The subject of series [5] is WSN-Ren virus. The class given is cell-based, influenza A/WSN/33 virus. The source holds these as a separate data set.

In the case of `COc1cc2c(O)c3c(c(-c4ccc5c(c4)OCO5)c2cc1OC)C(=O)OC3` [Diphyllin], the influenza virus entry entry in series [1] is “inhibits influenza virus entry”. The “inhibition of influenza A/WSN/33 virus” value with influenza A/WSN/33 virus [2] (A549 cells, MOI=1, FIG. 8b) is “Dose-dependent inhibition”. For the same compound, the “influenza virus inhibitory activity in high-throughput screen” value in the series with influenza virus is “having influenza virus inhibitory activity”.

Consider `CCc1cc(-c2n[nH]c(C)c2-c2ccc3c(c2)OCCO3)c(O)cc1O` [CCT018159, 4-(4-(2,3-Dihydro-1,4-benzodioxin-6-yl)-5-methyl-1H-pyrazol-3-yl)-6-ethylresorcinol], for which, in the series on WSN-Ren virus [3], the WSN-Ren virus growth entry is listed as “reduce influenza virus growth”.

On to `COc1ccc(S(=O)(=O)N(CCO)c2ccccc2CN(C)C/C=C/c2ccc(Cl)cc2)cc1` [KN-93], for which the “A/WSN/33 influenza viral replication (viral titers)” value with influenza A/WSN/33 virus [4] was “inhibits A/WSN/33 influenza viral replication in a dose-dependent manner”. The “influenza virus growth by plaque assay” value in the series with influenza A/WSN/33 virus [2] (20 μM) is “impairs influenza virus growth”. Further, the “cell viability (ATP levels)” value in the series on MDCK cells is “without affecting cell viability”.

For the compound `O=c1[nH]c2ccccc2c(O)c1-c1nc2ccccc2[nH]1` [FGF/VEGF Receptor Inhibitor, 4-Hydroxy-3-benzimidazol-2-ylhydroquinolin-2-one], in the series on WSN-Ren virus [3], the WSN-Ren virus growth result is “reduce influenza virus growth”.

As for `COc1cc([C@@H]2c3cc4c(cc3[C@H](O)[C@H]3COC(=O)[C@H]23)OCO4)cc(OC)c1OC` [Podophyllotoxin], the WSN-Ren virus growth entry in the series on WSN-Ren virus [3] is given as “reduce influenza virus growth”.

In the case of “HIST3H3 (guide TGAGAGGTTGCGCAACGTTCA; target site or template, no part of the molecule; target sequence, further chemistry not given here)”, in the series with WSN-Ren virus [5], the “Avg Score 12 h” value is listed as 0.6254, the “Avg Score 24 h” value is listed as 0.5921 and the “Avg Score 36 h” value was 0.4817.

For the origin of these results see patent US9238815B2 (priority 2009, dated 2016).
